# Where “and” joins values, the source holds several entries; their conditions need not be identical. Identical values can stand only once.
# Legend:
# [1] = mean ± SD, subjects with chronic kidney disease
# [2] = mean of subjects with reduced renal function
# Plasma protein binding = conditions: mean ± SD of 8 subjects with chronic kidney disease
# [3] = Percentage injected dose in urine, voided at 30 and 180 min; conditions: for Percentage of injected dose in urine: individual patients 1–8; for Percentage of injected dose in urine, mean ± SD: mean ± SD of 8 subjects
# Red cell = conditions: mean ± SD of 8 subjects with chronic kidney disease
# [4] = normal renal function; cited from earlier work
# [5] = renal extraction; cited from earlier work
Relative uptake in the left kidney [1],Mean plasma clearance (not normalised to body surface) [2],"PPB (%), mean ± SD (Plasma protein binding)","Percentage of injected dose in urine, mean ± SD ([3]; 30 min after injection)","Percentage of injected dose in urine, mean ± SD ([3]; 180 min (3 h) after injection)","Percentage of injected dose in urine, mean ± SD ([3]; 180 min (3 h) after injection, listed as OIH)","RBC (%) (red cell uptake), mean ± SD (Red cell)","RBC (%) (red cell uptake), mean ± SD (Red cell; listed as OIH)",Structure (SMILES),Percentage of injected dose in urine ([3]; 30 min after injection),Percentage of injected dose in urine ([3]; 180 min after injection),Normal plasma clearance [4],Extraction fraction [5]
55.5% ± 8.1%,198 mL/min,71 ± 5%,40 ± 8%,78% ± 11%,78 ± 11%,16% ± 2%,16 ± 2%,"O=C(O)CNC(=O)c1ccccc1[131I] [^131I-OIH, ^131I-o-iodohippuran]",46% and 47% and 24% and 38% and 50% and 42% and 41% and 33%,81% and 59% and 76% and 98% and 75% and 77% and 79%,472 to 530 mL/min,
,,,,,,,,"O=C([O-])CN(CCN(CC(=O)[O-])CC(=O)[O-])CCN(CC(=O)[O-])CC(=O)[O-].[99Tc+4] [^99mTc-DTPA, ^99mTc-diethyltriaminepentaacetic acid]",,,,approximately 20%

# Reference: publication PMC3989841 (Journal of nuclear medicine : official publication, Society …, 2013)
